Assay [1] has as its system LoVo cells. The assay can be described thus: Antiproliferative activity, SRB assay. In kind it is cell-based, human. Conditions: for IC50: 72 h exposure, SRB, mean ± SD, n.a = no activity in concentration of 5, 25, 125, 625 μM. On the procedure: (§1) Human biphenotypic B myelomonocytic leukemia MV4-11, human colon cancer LoVo cell line and normal mouse fibroblast BALB/3T3 cells were obtained from American Type Culture Collection (Rockville, Maryland, USA), human lung carcinoma A549 cells were obtained from European Collection of Authenticated Cell Cultures (UK). All the cell lines are being maintained at the Hirszfeld Institute of Immunology and Experimental Therapy, PAS, Wroclaw, Poland and were cultured according the procedure described before.
(§2) Cell lines were cultured according to the protocol described before. MV4-11 cells were cultured in RPMI 1640 medium (Gibco, UK) with 1.0 mM sodium pyruvate, and 10% fetal bovine serum (FBS) (all from Sigma-Aldrich, Germany). A549, LoVo and LoVo/DX cells were cultured in RPMI 1640 + Opti-MEM (1:1) (both from Gibco, UK) supplemented with 5% fetal bovine serum, 1.0 mM sodium pyruvate (LoVo and LoVo/DX cells) (all from Sigma Aldrich Germany) and 0.1 μg/mL doxorubicin chloride (Accord) (only LoVo/DX cells). BALB/3T3 cells in Dulbecco medium (IIET, Poland) supplemented with 10% fetal bovine serum (Sigma-Aldrich, Germany). All culture media were supplemented with 2 mM L-glutamine (Sigma-Aldrich, Germany), 100 units/mL penicillin, and 100 µg/mL streptomycin (both from Polfa Tarchomin S.A., Poland). All cell lines were grown at 37 °C with 5% CO2 humidified atmosphere.
(§3) The solutions of the compounds (50 mM) were prepared by dissolving the substances in DMSO (Sigma Aldrich, Germany). Then the tested compounds were diluted in culture medium to reach the final concentrations of 625, 125, 25 and 5 μM. Before adding of the tested compounds (24 h prior), the cells were plated in 96-well plates (Sarstedt, Germany) at a density of 1 × 10^4 or 0.5 × 10^4 (A549) cells per well. The assay was performed after 72 h of exposure to 625, 125, 25 and 5 μM of the tested agents. The in vitro cytotoxic effect of all agents was examined using the MTT (MV4-11) or SRB assay, described previously. The results were calculated as an IC50 (inhibitory concentration 50%) the concentration of tested agent, which is cytotoxic for 50% of the cancer cells. Each compound in each concentration was tested in triplicate in a single experiment, which was repeated 3–5 times.
Background: Sulforhodamine B stains cellular protein and so reports cell mass.

Assay [2] has as its system A549 cells. As to the kind of experiment: Antiproliferative activity, SRB assay. In kind it is cell-based, human. The protocol:
as §1, §2, §3

The test system of assay [3] is MV4-11 cells. As to the kind of experiment: Antiproliferative activity, MTT assay. It counts as cell-based, human. The protocol:
as §1, §2, §3
Background: Tetrazolium dyes change colour on reduction, which living cells bring about.

For assay [4], the system named is BALB/3T3 cells. As to the kind of experiment: Toxicity towards normal fibroblasts, SRB assay. In kind it is cell-based. The conditions noted are these: normal mouse fibroblasts, 72 h exposure, mean ± SD, n.a = no activity in concentration of 5, 25, 125, 625 μM. The protocol: as §1, §2, §3
Assay [5] concerns LoVo/DX cells. As to the kind of experiment: Antiproliferative activity, SRB assay, doxorubicin resistant subline. In kind it is cell-based, human. On the procedure: Cell lines were cultured according to the protocol described before. […] All culture media were supplemented with 2 mM L-glutamine (Sigma-Aldrich, Germany), 100 units/mL penicillin, and 100 µg/mL streptomycin (both from Polfa Tarchomin S.A., Poland). All cell lines were grown at 37 °C with 5% CO2 humidified atmosphere. The solutions of the compounds (50 mM) were prepared by dissolving the substances in DMSO (Sigma Aldrich, Germany). […] The in vitro cytotoxic effect of all agents was examined using the MTT (MV4-11) or SRB assay, described previously. […] Each compound in each concentration was tested in triplicate in a single experiment, which was repeated 3–5 times.

Assay [6] relates to Myzus persicae. The assay can be described thus: EPG monitoring of aphid probing and feeding (no-choice test). It counts as in vivo. The conditions noted are these: 8-h EPG. The protocol:
(§4) The peach potato aphids Myzus persicae (Sulzer) and the Chinese cabbage Brassica rapa subsp. pekinensis (Lour.) Hanelt were reared in laboratory at 20 °C, 65% r.h., and L16:8D photoperiod. One to seven days old apterous females of M. persicae and 3-week old plants with 4–5 fully developed leaves were used for experiments. M. persicae were obtained from the laboratory culture maintained at the Department of Botany and Ecology for many generations since 2000. All experiments were carried out under the same conditions of temperature, relative humidity, and photoperiod. The bioassays were started at 10–11.a.m. Each compound was dissolved in 70% ethanol to obtain the recommended 0.1% solution[40]. All compounds were applied on the adaxial and abaxial leaf surfaces by immersing a leaf in the ethanolic solution of a given compound for 30 s.[20]. Control leaves of similar size were immersed in 70% ethanol that was used as a solvent for the studied compounds. Experiments were performed 1 h after the compounds application to allow the evaporation of the solvent. Every plant and aphid were used only once.
Aphid probing and the phloem sap uptake by M. persicae was monitored using the technique of electronic registration of aphid probing in plant tissues, known as EPG (= Electrical Penetration Graph), that is frequently employed in insect–plant relationship studies considering insects with sucking-piercing mouthparts[42]–[44]. In this experimental set-up, aphid and plant are connected to electrodes and thus made parts of an electric circuit, which is completed when the aphid inserts its stylets into the plant. Weak voltage is supplied in the circuit, and all changing electric properties are recorded as EPG waveforms that can be correlated with aphid activities and stylet position in plant tissues[45],[46]. The parameters describing aphid behaviour during probing and feeding, such as total time of probing, proportion of phloem patterns E1 and E2, number of probes, etc., are good indicators of plant suitability or interference of probing by chemical or physical factors in individual plant tissues[44]–[46]. In the present study, aphids were attached to a golden wire electrode with conductive silver paint (epgsystems. eu) and starved for 1 h prior to the experiment. Probing behaviour of 12 apterous females/studied compound and control was monitored for 8 h continuously with Giga-4 and Giga-8 DC EPG with 1 GΩ of input resistance recording equipment (EPG Systems, Wageningen, The Netherlands). Each aphid was given access to a freshly prepared plant and each aphid/plant combination was used only once. Various behavioural phases were labelled manually using the Stylet + software (www.epgsystems.eu). The following aphid behaviours were distinguished: no penetration (waveform 'np' – aphid stylets outside the plant), pathway phase—penetration of non-phloem tissues (waveforms 'ABC'), phloem phase (salivation into sieve elements, waveform ‘E1’ and ingestion of phloem sap, waveform ‘E2’), and xylem phase (ingestion of xylem sap, waveform 'G'). Waveform ‘G’ occurred rarely irrespective of the treatment. Therefore, in all calculations the xylem phase was added to the pathway phase and termed as probing in non-phloem tissues. The E1/E2 transition patterns were included in E2. Waveform patterns that were not terminated before the end of the experimental period (8 h) were not excluded from the calculations. The parameters derived from EPG recordings were analyzed according to their frequency and duration in configuration related to activities in peripheral and vascular tissues.
All statistical calculations related to data of the no-choice test were performed using StatSoft, Inc. (2014) STATISTICA (data analysis software system), version 12, www.statsoft.com. […]

Assay [7] deals with Myzus persicae. As to the kind of experiment: Aphid settling (choice test) on treated vs control leaves of Brassica rapa subsp. pekinensis. The conditions noted are these: 0.1% solution in 70% ethanol, mean (± SD), n = 8, 20 aphids/replicate. It counts as in vivo. On the procedure: as §4
This bioassay allows the study of aphid host preferences under semi-natural conditions. In the present study, aphids were given free choice between control and treated excised leaves that were placed in a Petri dish. Aphids were placed in the dish equidistance from treated and untreated leaves, so that aphids could choose between treated (on one half of a Petri dish) and control leaves (on the other half of the dish). […] Each experiment was replicated 8 times (n = 8 replicates, 20 viviparous apterous females/replicate). Aphids that were moving or not on any of the leaves were not counted.
The data of the choice-test were analyzed using Student’s t-test (STATISTICA 13.1. package). […] If aphids settled mainly on the control leaf (p < 0.05), the compound tested in the respective choice-test was stated a deterrent. From the data thus obtained the relative index of deterrence (DI) was calculated: DI = (C − T/C + T) where C was the number of aphids settled on control leaf, T was the number of aphids settled on the leaf treated with the tested compound. The value of DI ranged between 1 (ideal deterrent) and − 1 (ideal attractant)[41].

In assay [8] the test system is caspase-3/7 in MV4-11 cells. The assay can be described thus: Caspase-3/7 activity determination (Ac-DEVD-ACC substrate). In kind it is cell-based, human. Conditions: MV4-11, 75 µM, 72 h. The protocol: Caspase-3/7 activity determination was performed according to the protocol previously described. The MV4-11 cells were seeded at the density of 1 × 10^5 cells/mL of culture medium on 24-well plates (Sarstedt, Germany) to the final volume of 2 mL. The cells were exposed to the test compounds at concentrations 75 μM or campthothecin (0.05 μg/mL) as a positive control, for 72 h. After 72 h of the incubation, the cells were collected and centrifuged (5 min., 4 °C, 250×g). Cells were suspended in 50 µL of ice-cold lysis buffer (50 mM HEPES, 10% (w/v) sucrose, 150 mM NaCl, 2 mM EDTA, 1% (v/v) Triton X-100, pH 7.3, IIET, Poland) and incubated 30 min. at 4 °C. After the incubation, 40 µL of each sample was transferred to a white, 96-well plate (Corning, USA) containing 160 µL of the reaction buffer (20 mM HEPES, 10% sucrose, 100 mM NaCl, 1 mM EDTA, 10 mM DTT, 0.02% Trition X-100, pH 7.3) (IIET, Wroclaw, Poland) with 9 µM Ac-DEVD-ACC fluorogenic substrate (λex = 360 nm, λem = 460 nm). The fluorescence increase correlated with the caspase-3/7 level was continuously recorded at 37 °C for 120 min using a Biotek Synergy H4 (Biokom, Warsaw, Poland). Compounds were tested in duplicates in single experiment and each experiment was repeated at least three times independently. Results were normalized to the number of cells in each well and are reported as mean relative caspase-3/7 activity compared to untreated control sample ± SD.

[9] abbreviates: 72 h exposure, SRB, mean ± SD, n.a = no activity in concentration of 5, 25, 125, 625 μM.
The mark [10] stands for this setting: 0.1% solution, mean ± SE, n = 12.
[11] abbreviates: activities in non-phloem tissues, mean ± SE, n = 10-12.
Where [12] appears, read: activities in sieve elements, mean ± SE, n = 10-12.

The IC50 is the concentration at which inhibition is half-maximal. Higher therefore signals lower potency.

`N.N.[Cl][Pt][Cl]` [Cisplatin, reference compound]: the IC50 was 5.55 ± 0.12 µM in assay [1]; 3.97 ± 1.08 µM in assay [2] (setting [9]); 2.88 ± 0.83 µM in assay [3] (72 h exposure, MTT, mean ± SD, n.a = no activity in concentration of 5, 25, 125, 625 μM); 4.44 ± 2.36 µM in assay [4]; 3.45 ± 1.01 µM in assay [5] (setting [9]). Further, in assay [1] (SI = IC50 BALB/3T3 / IC50 LoVo), the “Selectivity index SI, LoVo” value worked out at 0.80. Further, in assay [2] (SI = IC50 BALB/3T3 / IC50 A549), the “Selectivity index SI, A549” value worked out at 1.12. In assay [3] (SI = IC50 BALB/3T3 / IC50 MV4-11), the “Selectivity index SI, MV4-11” value worked out at 1.54. Also, in assay [5] (IR = IC50 against resistant LoVo/DX / IC50 against non-resistant LoVo, 0 < IR < 2 able to overcome drug resistance), the “IR (index of resistance)” value was determined as 0.62. Besides, the “Selectivity index SI, LoVo/DX” value in assay [5] (SI = IC50 BALB/3T3 / IC50 LoVo/DX) worked out at 1.29.

For `COc1cccc2c1C(=O)c1c(O)c3c(c(O)c1C2=O)C[C@@](O)(C(=O)CO)C[C@@H]3O[C@H]1C[C@H](N)[C@H](O)[C@H](C)O1` [Doxorubicin], the IC50 in assay [1] (Homo sapiens, LoVo) was 0.12 ± 0.01 µM.

`C=CC(C)(CCCC(C)CCCC(C)CCCC(C)C)CC(=O)OCC` (stereo not shown) [compound 2, ethyl 3,7,11,15-tetramethyl-3-vinylhexadecanoate]: in assay [6] (setting [10]), the “Mean duration of probing (C + G + E)” value turned out to be 1.4 ± 0.6 h, the Number of probes is given as 17.6 ± 4.1, the “Total duration of pathway (C)” value was 4.7 ± 0.8 h and the “Total duration of phloem phase (E)” value came out at 2.4 ± 0.8 h. Moreover, in assay [6] (setting [10]), the “Total duration of probing (C + G + E)” value is 7.3 ± 0.2 h. Besides, in assay [6] (setting [11]), the “Number of probes before first phloem phase” value is given as 14.9 ± 4.1 and the “Time from first probe to first phloem phase” value stood at 2.9 ± 0.8 h. Also, in assay [6] (setting [12]), the “Duration of first phloem phase” value was found to be 2.0 ± 0.8 h, the “Total duration of phloem salivation E1” value came out at 2.4 ± 1.2 min and the “Total duration of phloem sap ingestion E2” value was found to be 2.4 ± 0.8 h. Further, in assay [6] (before first phloem phase, mean ± SE, n = 10-12), the “Number of probes < 3 min” value is recorded as 9.1 ± 2.7. Moreover, in assay [6] ((duration of E1 / duration of E1 + E2)*100), the “Proportion of salivation in phloem phase” value is listed as 7.9%. The “Proportion of phloem phase in total probing” value in assay [6] (index = duration of phloem phase E / duration of probing C + G + E) was determined as 32.0%. In assay [7] (1 h after access), the “Mean number of aphids settled on treated (test) leaf” value (“Mean number of aphids settled” for short) was 10.8 (± 1.7). In assay [7] (2 h after access), the “Mean number of aphids settled” value is on record as 8.9 (± 0.9). Also, the “Mean number of aphids settled” value in assay [7] (24 h after access) is 9.6 (± 1.6). In addition, the “Increase of caspase-3/7 activity compared to the control” value in assay [8] is recorded as “about 1.5 times”.

For the origin of these results see PMC7896091, “Synthesis of novel phytol-derived γ-butyrolactones and evaluation of their biological activity” (Scientific Reports, 2021).
